Measured values reported in patent US9468615B2, “Use of malononitrilamides in neuropathic pain” (AL-GIAX Pharmaceuticals GMBH, priority 2010, dated 2016).

Assays:
[1] = test system: severe spinal cord contusion injury in the rat; experiment: Mechanical sensitivity (von Frey, Up-Down) after severe spinal cord contusion injury, treatment DPO 28-35; assay type: in vivo; details: for withdrawal threshold (50% threshold force): DPO 28, before start of treatment (group baseline), 15 grams before injury, vehicle group 2.7
Description: (§1) Thirteen week-old female Lewis rats (Charles River, Sulzfeld Germany) were housed under a 12:12 h dark/light regime and allowed free access to water and food. After one week of habituation the animals underwent general anesthesia with a mixture of isoflurane and air (induction: 5% isoflurane, maintenance: 2.2% isofluorane). A Th10 laminectomy was performed without rupturing the dura and a severe contusive SCI (25 gem NYU/MASCIS II impactor) (Gruner, 1992 #3) was induced. After suturing muscle and skin, a subcutaneous (s.c.) injection of 5 ml of Ringers Lactate was given. Bladders were emptied manually 2 times a day until spontaneous voiding returned (usually within 1 week). The lesion severity was verified by the impact velocity and contusion depth of the impactor rod. Animals with an impact velocity error >5% were excluded from further analysis. After injury, individual rats were randomly assigned into a treatment group. The following groups were used:
The mechanical sensitivity response was measured as the direct pressure stimulus required eliciting foot withdrawal in nonrestrained conditions. All tests were conducted in the morning between 7:30 and 10:30 am and the person performing the behavioral tests was blinded to the experimental groups. Animals were habituated to the testing apparatus for at least 20 min before testing. Each animal was subjected to the stimulation of a series of von Frey filaments ranging from 0.4 to 15 g (log force 3.61, 3.84, 4.08, 4.31, 4.56, 4.74, 4.93 and 5.18) using the Up-Down paradigm according to Chaplan (Chaplan et al., 1994). The selected von Frey filament was pressed against the plantar surface of the hind paw to the point of 30° bending for 3 s. Paw withdrawal response was considered as the positive response. The 50% threshold force needed for paw withdrawal was calculated for both hind paws of each rat and the mean value of both hind paws was used to represent the mechanical sensitivity of this animal.
(§2) Group 2: SCI+HR 325 (10 mg/kg/day) in vehicle by gavage for 7 days, from DPO 28 till DPO 35
(§3) Group 3: SCI+FK 778 (10 mg/kg/day) in vehicle by gavage for 7 day, from DPO 28 till DPO 35

[2] = test system: severe spinal cord contusion injury in the rat; experiment: Acetone test (cold chemical stimulus) after severe spinal cord contusion injury, treatment DPO 28-35; assay type: in vivo; details: 10 mg/kg/day by gavage DPO 28 till DPO 35
Description: as §1, §2, §3
A slightly modified method of De la Calle and colleagues (De la Calle et al., 2002) was used for the determination of the reactivity to a cold chemical stimulus. The rat was placed in acrylic cages on top of a wire mesh grid, which allowed access to the paws, and acetone was applied to the plantar surface of the hind paw. To do this, 100 μl of acetone was sprayed onto the plantar surface of the rat's hind leg from below the grid with a syringe holding 2.5 ml. The time spent with the leg withdrawn from floor during the 60 s following exposure to acetone was recorded. Both hind legs were tested in each animal with an interval of 5-10 min between each test. The average reaction time between the two legs was taken for further analysis. A minimal value of 1 s was assigned to convey a fast or brisk reaction, while 0 was assigned if there was no reaction at all. This acetone test has been described as composing of cold, chemical, and possibly mechanical stimulation.

[3] = test system: spinal cord contusion injury; experiment: Mechanical sensitivity (von Frey, Up-Down), chronic central neuropathic pain three months after spinal cord contusion injury, treatment DPO 84-91; assay type: in vivo, rat; details: DPO 28, before treatment (group baseline, stable up to DPO 84); 15 grams before injury; vehicle group 3.2
Description: as §1, with “used: The mechanical sensitivity response was measured as the direct pressure stimulus required eliciting foot withdrawal in nonrestrained conditions. […] The 50% threshold force needed for paw withdrawal was calculated for both hind paws of each rat and the mean value of both hind paws was used to represent the mechanical sensitivity of this animal. […]” for “used:”

[4] = test system: partial ligation of the sciatic nerve; experiment: Mechanical sensitivity (von Frey, Up-Down) after partial ligation of the sciatic nerve; assay type: in vivo, rat; details: DPO 21, after daily oral 10 mg/kg DPO 14 till DPO 21; 60 grams before injury, 19 grams at DPO 14 before treatment; FIG. 8
Description: The mechanical sensitivity response was measured as the direct pressure stimulus required eliciting foot withdrawal in nonrestained conditions. Animals were habituated to the testing apparatus for at least 20 min before testing. Each animal was subjected to the stimulation of a series of von Frey filaments ranging from 1.0 to 60 g using the Up-Down paradigm according to Chapter (Chaplan et al., 1994). The selected von Frey filament was pressed against the plantar surface of the hind paw to the point of 30° bending for 3 s. Paw withdrawal response was considered as the positive response. The 50% threshold force needed for paw withdrawal was calculated for both hind paws of each rat. The methods of Seltzer et al. (1990) were followed. The dorsum of the sciatic nerve was carefully freed from surrounding connective tissues at a site near the trochanter just distal to the point at which the posterior biceps semitendinosus nerve branches off the common sciatic nerve. The nerve was fixed in its place by pinching the epineurium on its dorsal aspect, taking care not to press the nerve against underlying structures. An 8-0 (Polyamide 6) suture was inserted into the nerve and tightly ligated so that the dorsal ⅓-½ of the nerve thickness was trapped in the ligature (Seltzer et al., 1990). […]

`C#CCCC(O)=C(C#N)C(=O)Nc1ccc(C(F)(F)F)cc1` [FK-778, N-(4-trifluoromethyl)-phenyl-2-cyano-3-hydroxy-hept-2-en-6-in-carboxylic acidamide] was tested, and the “reversal of mechanical allodynia after experimental spinal cord injury (conclusion)” value ([1]; 10 mg/kg/day by gavage DPO 28 till DPO 35) was “able to reverse mechanical allodynia”, the “withdrawal threshold (50% threshold force)” value [1] was 3.1 grams and the “withdrawal threshold vs vehicle control animals” value ([1]; DPO 35, 10 mg/kg/day by gavage DPO 28 till DPO 35, one-way ANOVA p<0.001, FIG. 2) was “significantly higher”. The “withdrawal threshold, difference to vehicle controls” value ([1]; end of experiment DPO 77, 10 mg/kg/day by gavage DPO 28 till DPO 35, p<0.001) was “statistically significant difference between the treated animals and the vehicle controls remained”, the “reversal of cold allodynia after experimental spinal cord injury (conclusion)” value [2] was “able to reverse cold allodynia” and the “duration of response to acetone exposure vs vehicle controls” value ([2]; DPO 35, one-way ANOVA p<0.01, FIG. 3) was “responded significantly shorter”. The “duration of response to acetone exposure vs vehicle controls” value ([2]; DPO 56, ANOVA p<0.001, Bonferroni post-hoc) was “responded significantly shorter” and the “duration of response to acetone exposure, differences to vehicle controls” value ([2]; end of experiment DPO 70, p<0.01) was “differences remained unchanged”.
In the case of `Cc1cc(NC(=O)/C(C#N)=C(\O)C2CC2)ccc1C(F)(F)F` [HR-325, 1(3-methyl-4-trifluoromethylphenyl-carbamoyl)-2-cyclopropyl-2oxo-propionitrile], the “withdrawal threshold (50% threshold force)” value [1] is reported as 3.0 grams, the “withdrawal threshold (50% threshold force)” value [3] is reported as 2.7 grams and the “withdrawal threshold in the ipsilateral paw” value [4] is reported as 54 grams.
